Counter-ions that a name gives are not always drawn. Like-named read-outs stand apart in the source and are kept apart here.

Among the data in US9617283B2, “Bicyclic heterocycle compounds and their uses in therapy” (ASTEX THERAPEUTICS LIMITED, priority 2012, dated 2017) are inhibition and EC50 values, retold here.

Test [1] deals with T1, BIR3 domain of human XIAP (residues 252-350) (Homo sapiens, UniProt P98170).
T1 construct: BIR3 domain of human XIAP (residues 252-350); His-tag (cleaved yes); made in house; host or cells: Escherichia coli
Nature of the test: XIAP in vitro competitive displacement binding assay (fluorescence polarization). Particulars: 1 h, percent inhibition (PI) at 0.04 μM; read-out: Xiap IC50 or PI μM.

In test [2] the test system is EVSA-T (human breast carcinoma). Nature of the test: Anti-proliferative activity, Alamar Blue assay, EVSA-T. Format: cell-based. Particulars: Homo sapiens, EVSA-T.
The mark [3] stands for this setting: 72 h, EVSA-T cell line, 72 hours, Alamar Blue, read-out: EVSA-T prolif.
The mark [4] stands for this setting: read-out: EC50 in EVSA-T cell line assays.

T1 sequence (P98170 252-350): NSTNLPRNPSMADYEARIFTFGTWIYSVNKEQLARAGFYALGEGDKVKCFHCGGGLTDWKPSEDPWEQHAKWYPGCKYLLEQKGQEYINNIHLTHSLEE

`CC1=C(C)C(=O)N(C[C@H]2CN[C@H](C)CN2CC(=O)N2CC(C)(C)c3nnc(Cc4ccc(F)cc4F)cc32)C1` [Example 50, 1-{[(2R,5R)-1-(2-{3-[(2,4-Difluorophenyl)methyl]-7,7-dimethyl-5H,6H,7H-pyrrolo[3,2-c]pyridazin-5-yl}-2-oxoethyl)-5-methylpiperazin-2-yl]methyl}-3,4-dimethyl-2,5-dihydro-1H-pyrrol-2-one L-lactate]: the inhibition at 0.04 µM in test [1] stood at 66%. Further, the EC50 is 1.2 nM in test [2] (setting [3]) and less than 1000 nM in test [2] (setting [4]).
Regarding `CC1=C(C)C(=O)N(C[C@H]2CN[C@H](C)CN2CC(=O)N2CC(C)(C)c3nnc(Cc4ccc(F)cc4)cc32)C1` [Example 51, 1-{[(2R,5R)-1-(2-{3-[(4-Fluorophenyl)methyl]-7,7-dimethyl-5H,6H,7H-pyrrolo[3,2-c]pyridazin-5-yl}-2-oxoethyl)-5-methylpiperazin-2-yl]methyl}-3,4-dimethyl-2,5-dihydro-1H-pyrrol-2-one L-lactate], the inhibition at 0.04 µM in test [1] is 48%. Further, the EC50 in test [2] (setting [3]) is 4.9 nM; in test [2] (setting [4]), less than 1000 nM.
The matching figures for `CCCC(F)(F)c1cc2c(nn1)C(C)(C)CN2C(=O)CN1C[C@@H](C)NC[C@@H]1CN1Cc2ccccc2C1=O` [Example 59, 2-{[(2R,5R)-1-{2-[3-(1,1-Difluorobutyl)-7,7-dimethyl-5H,6H,7H-pyrrolo[3,2-c]pyridazin-5-yl]-2-oxoethyl}-5-methylpiperazin-2-yl]methyl}-2,3-dihydro-1H-isoindol-1-one dihydrochloride]: 68%, 1.6 nM and less than 1000 nM.
In the same order, the values of `C[C@@H]1CN(CC(=O)N2CC(C)(C)c3cnc(Cc4ccc(F)cc4)cc32)[C@@H](CN2Cc3ccccc3C2=O)CN1` [Example 60, 2-{[(2R,5R)-1-(2-{6-[(4-Fluorophenyl)methyl]-3,3-dimethyl-1H,2H,3H-pyrrolo[3,2-c]pyridin-1-yl}-2-oxoethyl)-5-methylpiperazin-2-yl]methyl}-2,3-dihydro-1H-isoindol-1-one dihydrochloride] are 94%, 0.29 nM and less than 1000 nM.
In the same order, the values of `CCCC(F)(F)c1cc2c(cn1)C(C)(C)CN2C(=O)CN1C[C@@H](C)NC[C@@H]1CN1Cc2ncccc2C1=O` [Example 68, 6-{[(2R,5R)-1-{2-[6-(1,1-Difluorobutyl)-3,3-dimethyl-1H,2H,3H-pyrrolo[3,2-c]pyridin-1-yl]-2-oxoethyl}-5-methylpiperazin-2-yl]methyl}-5H,6H,7H-pyrrolo[3,4-b]pyridin-5-one dihydrochloride] are 72%, 2.4 nM and less than 1000 nM.
For `C[C@@H]1CN(CC(=O)N2CC(C)(C)c3cnc(Cc4ccc(F)cc4F)cc32)[C@@H](CN2C[C@@H](C)OCC2=O)CN1` [Example 69, (6R)-4-{[(2R,5R)-1-(2-{6-[(2,4-Difluorophenyl)methyl]-3,3-dimethyl-1H,2H,3H-pyrrolo[3,2-c]pyridin-1-yl}-2-oxoethyl)-5-methylpiperazin-2-yl]methyl}-6-methylmorpholin-3-one dihydrochloride], in test [1], the inhibition at 0.04 µM was found to be 68%. The figures for the EC50 in test [2] (setting [3]) and in test [2] (setting [4]) were 2.6 nM and less than 1000 nM, respectively.
In the same order, the values of `C[C@@H]1CC(=O)N(C[C@H]2CN[C@H](C)CN2CC(=O)N2CC(C)(C)c3ncc(Cc4ccc(F)cc4F)cc32)C1` [Example 70, (4R)-1-{[(2R,5R)-1-(2-{6-[(2,4-Difluorophenyl)methyl]-3,3-dimethyl-1H,2H,3H-pyrrolo[3,2-b]pyridin-1-yl}-2-oxoethyl)-5-methylpiperazin-2-yl]methyl}-4-methylpyrrolidin-2-one dihydrochloride] are 55%, 3.2 nM and less than 1000 nM.
The matching figures for `C[C@@H]1CC(=O)N(C[C@H]2CN[C@H](C)CN2CC(=O)N2CC(C)(C)c3cnc(Cc4ccc(F)cc4F)cc32)C1` [Example 71, (4R)-1-{[(2R,5R)-1-(2-{6-[(2,4-Difluorophenyl)methyl]-3,3-dimethyl-1H,2H,3H-pyrrolo[3,2-c]pyridin-1-yl}-2-oxoethyl)-5-methylpiperazin-2-yl]methyl}-4-methylpyrrolidin-2-one dihydrochloride]: 64%, 2.5 nM and less than 1000 nM.
In the same order, the values of `CCCC(F)(F)c1cc2c(cn1)C(C)(C)CN2C(=O)CN1C[C@@H](C)NC[C@@H]1CN1C[C@H](C)CC1=O` [Example 72, (4R)-1-{[(2R,5R)-1-{2-[6-(1,1-Difluorobutyl)-3,3-dimethyl-1H,2H,3H-pyrrolo[3,2-c]pyridin-1-yl]-2-oxoethyl}-5-methylpiperazin-2-yl]methyl}-4-methylpyrrolidin-2-one dihydrochloride] are 79%, 27 nM and less than 1000 nM.
With `C[C@H]1CC(=O)N(C[C@H]2CN[C@H](C)CN2CC(=O)N2CC(C)(C)c3ncc(Cc4ccc(F)cc4F)cc32)C1` [Example 73, (4S)-1-{[(2R,5R)-1-(2-{6-[(2,4-Difluorophenyl)methyl]-3,3-dimethyl-1H,2H,3H-pyrrolo[3,2-b]pyridin-1-yl}-2-oxoethyl)-5-methylpiperazin-2-yl]methyl}-4-methylpyrrolidin-2-one dihydrochloride], the inhibition at 0.04 µM in test [1] is 64%. Further, the EC50 is 2.5 nM in test [2] (setting [3]) and less than 1000 nM in test [2] (setting [4]).
For the compound `C[C@H]1CC(=O)N(C[C@H]2CN[C@H](C)CN2CC(=O)N2CC(C)(C)c3cnc(Cc4ccc(F)cc4F)cc32)C1` [Example 74, (4S)-1-{[(2R,5R)-1-(2-{6-[(2,4-Difluorophenyl)methyl]-3,3-dimethyl-1H,2H,3H-pyrrolo[3,2-c]pyridin-1-yl}-2-oxoethyl)-5-methylpiperazin-2-yl]methyl}-4-methylpyrrolidin-2-one dihydrochloride], the inhibition at 0.04 µM in test [1] is 71%. The EC50 in test [2] (setting [3]) is 1.8 nM; in test [2] (setting [4]) it was less than 1000 nM.
With `CCCC(F)(F)c1cc2c(cn1)C(C)(C)CN2C(=O)CN1C[C@@H](C)NC[C@@H]1CN1C[C@@H](C)CC1=O` [Example 75, (4S)-1-{[(2R,5R)-1-{2-[6-(1,1-Difluorobutyl)-3,3-dimethyl-1H,2H,3H-pyrrolo[3,2-c]pyridin-1-yl]-2-oxoethyl}-5-methylpiperazin-2-yl]methyl}-4-methylpyrrolidin-2-one dihydrochloride], the inhibition at 0.04 µM in test [1] was found to be 75%. For the same compound, the figures for the EC50 in test [2] (setting [3]) and in test [2] (setting [4]) were 14 nM and less than 1000 nM, respectively.
In the case of `C[C@@H]1CN(CC(=O)N2CC(C)(C)c3cnc(Cc4ccc(F)cc4F)cc32)[C@@H](CN2Cc3ccccc3C2=O)CN1` [Example 77, 2-{[(2R,5R)-1-(2-{6-[(2,4-Difluorophenyl)methyl]-3,3-dimethyl-1H,2H,3H-pyrrolo[3,2-c]pyridin-1-yl}-2-oxoethyl)-5-methylpiperazin-2-yl]methyl}-2,3-dihydro-1H-isoindol-1-one dihydrochloride], in test [1], the inhibition at 0.04 µM turned out to be 90%. For the same compound, the EC50 in test [2] (setting [3]) was 0.17 nM; in test [2] (setting [4]) it was less than 1000 nM.
Take `CCCC(F)(F)c1cc2c(cn1)C(C)(C)CN2C(=O)CN1C[C@@H](C)NC[C@@H]1CN1Cc2ccncc2C1=O` [Example 78, 2-{[(2R,5R)-1-{2-[6-(1,1-Difluorobutyl)-3,3-dimethyl-1H,2H,3H-pyrrolo[3,2-c]pyridin-1-yl]-2-oxoethyl}-5-methylpiperazin-2-yl]methyl}-1H,2H,3H-pyrrolo[3,4-c]pyridin-3-one dihydrochloride]: the inhibition at 0.04 µM in test [1] was determined as 64%. For the same compound, the EC50 in test [2] (setting [3]) was 3.4 nM; in test [2] (setting [4]), less than 1000 nM.
The matching figures for `C[C@@H]1CN(CC(=O)N2CC(C)(C)c3cnc(Cc4ccc(F)cc4F)cc32)[C@@H](CN2C[C@H](C)N(C)CC2=O)CN1` [Example 81, (5S)-1-{[(2R,5R)-1-(2-{6-[(2,4-Difluorophenyl)methyl]-3,3-dimethyl-1H,2H,3H-pyrrolo[3,2-c]pyridin-1-yl}-2-oxoethyl)-5-methylpiperazin-2-yl]methyl}-4,5-dimethylpiperazin-2-one dihydrochloride]: 52%, 2.8 nM and less than 1000 nM.
Take `C[C@@H]1CN(CC(=O)N2CC(C)(C)c3ncc([C@H](O)c4ccc(F)cc4)cc32)[C@@H](CN2Cc3ccccc3C2=O)CN1` [Example 84, 2-{[(2R,5R)-1-(2-{6-[(R)-(4-Fluorophenyl)(hydroxy)methyl]-3,3-dimethyl-1H,2H,3H-pyrrolo[3,2-b]pyridin-1-yl}-2-oxoethyl)-5-methylpiperazin-2-yl]methyl}-2,3-dihydro-1H-isoindol-1-one dihydrochloride]: the inhibition at 0.04 µM in test [1] is 51%. In addition, the EC50 in test [2] (setting [3]) is 150 nM; in test [2] (setting [4]), less than 1000 nM.
For the compound `C[C@@H]1CN(CC(=O)N2CC(C)(C)c3cnc(Cc4ccc(F)cc4F)cc32)[C@@H](CN2C[C@@H](C)N(C)CC2=O)CN1` [Example 85, (5R)-1-{[(2R,5R)-1-(2-{6-[(2,4-Difluorophenyl)methyl]-3,3-dimethyl-1H,2H,3H-pyrrolo[3,2-c]pyridin-1-yl}-2-oxoethyl)-5-methylpiperazin-2-yl]methyl}-4,5-dimethylpiperazin-2-one dihydrochloride], in test [1], the inhibition at 0.04 µM amounted to 45%. The results for the EC50 in test [2] (setting [3]) and in test [2] (setting [4]) were 4.5 nM and less than 1000 nM, respectively.
The matching figures for `COc1ccc2c(c1)CN(C[C@H]1CN[C@H](C)CN1CC(=O)N1CC(C)(C)c3cnc(Cc4ccc(F)cc4)cc31)C2=O` [Example 92, 2-{[(2R,5R)-1-(2-{6-[(4-Fluorophenyl)methyl]-3,3-dimethyl-1H,2H,3H-pyrrolo[3,2-c]pyridin-1-yl}-2-oxoethyl)-5-methylpiperazin-2-yl]methyl}-5-methoxy-2,3-dihydro-1H-isoindol-1-one dihydrochloride]: 93%, 0.26 nM and less than 1000 nM.
